In brackets after ≈: the same amount, converted by molar mass. Activity calls are given as the source filed them. No cut-off for these calls is given here.
Columns and labels:
Pseudomonas aeruginosa [1] = assay: Antimicrobial activity against Pseudomonas aeruginosa MTCC 11778 assessed as reduction in bacterial growth by serial dilution method; format: functional
Pseudomonas aeruginosa [2] = assay: Bactericidal activity against Pseudomonas aeruginosa MTCC 11778 by serial dilution method; format: functional
Escherichia coli [3] = assay: Bactericidal activity against Escherichia coli ATCC 10799 by serial dilution method; format: functional
HepG2 [4] = assay: Antiangiogenic activity against human HepG2 cells assessed as reduction in area of wound coverage at 12.5 ug/mL incubated for 72 hrs by scratch wound healing assay relative to control; format: functional; parameters: scale not given: the % may be the effect or the level left; conditions: dose 12.5 µg/ml
HepG2 [5] = assay: Antiangiogenic activity against human HepG2 cells assessed as reduction in area of wound coverage at 6.25 ug/mL incubated for 24 to 72 hrs by scratch wound healing assay; format: functional, cell-based; conditions: dose 6.25 µg/ml, time 24-72 hrs
Staphylococcus aureus [6] = assay: Antimicrobial activity against Staphylococcus aureus ATCC 6538 assessed as reduction in bacterial growth by serial dilution method; format: functional
HepG2 [7] = assay: Cytotoxicity against human HepG2 cells assessed as reduction in cell viability at 25 to 100 ug/mL by MTT assay; format: functional, cell-based; conditions: dose 25-100 µg/ml
Bacillus subtilis [8] = assay: Antimicrobial activity against Bacillus subtilis MTCC 13343 assessed as reduction in bacterial growth by serial dilution method; format: functional
Nakaseomyces glabratus = assay: Antimicrobial activity against Candida glabrata MTCC 3019 assessed as reduction in fungal growth by serial dilution method; format: functional
HepG2 [9] = assay: Cytotoxicity against human HepG2 cells assessed as reduction in cell viability up to 100 ug/mL by MTT assay relative to control; format: functional; conditions: dose <= 100 µg/ml; up to 100 µg/mL
HepG2 [10] = assay: Antiangiogenic activity against human HepG2 cells assessed as reduction in area of wound coverage at 6.25 to 12.5 ug/mL by scratch wound healing assay; format: functional, cell-based; conditions: dose 6.25-12.5 µg/ml, time 24-72 hrs
HepG2 [11] = assay: Antiangiogenic activity against human HepG2 cells assessed as reduction in area of wound coverage at 12.5 ug/mL incubated for 24 to 72 hrs by scratch wound healing assay; format: functional, cell-based; conditions: dose 12.5 µg/ml, time 24-72 hrs
HepG2 [12] = assay: Antiangiogenic activity against human HepG2 cells assessed as reduction in area of wound coverage incubated for 24 to 72 hrs by scratch wound healing assay; format: functional, cell-based; conditions: dose 6.25-12.5 µg/ml, time 24-72 hrs
Escherichia coli [13] = assay: Antimicrobial activity against Escherichia coli ATCC 10799 assessed as reduction in bacterial growth by serial dilution method; format: functional
Candida albicans [14] = assay: Antimicrobial activity against Candida albicans ATCC 24433 assessed as reduction in fungal growth by serial dilution method; format: functional
Bacillus subtilis [15] = assay: Bactericidal activity against Bacillus subtilis MTCC 13343 by serial dilution method; format: functional
Staphylococcus aureus [16] = assay: Bactericidal activity against Staphylococcus aureus ATCC 6538 by serial dilution method; format: functional
Candida albicans [17] = assay: Fungicidal activity against Candida albicans ATCC 24433 by serial dilution method; format: functional
HepG2 [18] = assay: Antiangiogenic activity against human HepG2 cells assessed as reduction in area of wound coverage at 12.5 ug/mL incubated for 72 hrs by scratch wound healing assay; format: functional; conditions: dose 12.5 µg/ml
HepG2 [19] = assay: Antiangiogenic activity against human HepG2 cells assessed as reduction in area of wound coverage at 12.5 ug/mL incubated for 48 hrs by scratch wound healing assay; format: functional; conditions: dose 12.5 µg/ml
HepG2 [20] = assay: Cytotoxicity against human HepG2 cells assessed as reduction in cell viability at 100 ug/mL by MTT assay relative to control; format: functional; conditions: dose 100 µg/ml
HepG2 [21] = assay: Antiangiogenic activity against human HepG2 cells assessed as reduction in area of wound coverage at 12.5 ug/mL incubated for 24 hrs by scratch wound healing assay; format: functional; conditions: dose 12.5 µg/ml
Bacillus subtilis [22] = assay: Selectivity ratio of MBC for bactericidal activity against Bacillus subtilis MTCC 13343 to MIC for antimicrobial activity against Bacillus subtilis MTCC 13343; format: functional
Escherichia coli [23] = assay: Selectivity ratio of MBC for bactericidal activity against Escherichia coli ATCC 10799 to MIC for antimicrobial activity against Escherichia coli ATCC 10799; format: functional

SMILES	MIC (Pseudomonas aeruginosa [1]) [µg/mL]	MBC (Pseudomonas aeruginosa [2]) [µg/mL]	Activity (HepG2 [4]) [%]	Activity (HepG2 [5])	MIC (Staphylococcus aureus [6]) [µg/mL]	Activity (HepG2 [7])	MIC (Bacillus subtilis [8]) [µg/mL]	MIC (Nakaseomyces glabratus) [µg/mL]	Activity (HepG2 [9]) [%]	Activity (HepG2 [10])	Activity (HepG2 [11])	Activity (HepG2 [12])	MIC (Escherichia coli [13]) [µg/mL]	MIC (Candida albicans [14]) [µg/mL]	MBC (Bacillus subtilis [15]) [µg/mL]	also measured
O=C(O)c1cn(C2CC2)c2cc(N3CCNCC3)c(F)cc2c1=O [CIPROFLOXACIN]	4 (≈ 12.1 µM)	32 (≈ 96.6 µM)	–	–	–	–	–	–	–	–	–	–	–	–	–	MBC (Escherichia coli [3]): 64 µg/mL (≈ 193 µM)
O=c1c(C(NCc2ccc(Cl)cc2)c2ccccc2)csc2ccccc12 (stereo not drawn)	32 (≈ 81.6 µM)	–	25.83	Active	64 (≈ 163 µM)	Active	64 (≈ 163 µM)	32 (≈ 81.6 µM)	<70	Time-dependent-effect	Active	Dose-dependent-effect	32 (≈ 81.6 µM)	32 (≈ 81.6 µM)	–	–
CC1(C)S[C@@H]2[C@H](NC(=O)[C@H](N)c3ccccc3)C(=O)N2[C@H]1C(=O)O [AMPICILLIN]	–	–	–	–	4 (≈ 11.4 µM)	–	8 (≈ 22.9 µM)	–	–	–	–	–	–	–	32 (≈ 91.6 µM)	MBC (Staphylococcus aureus [16]): 64 µg/mL (≈ 183 µM)
OC(Cn1cncn1)(Cn1cncn1)c1ccc(F)cc1F [FLUCONAZOLE]	–	–	–	–	–	–	–	16 (≈ 52.2 µM)	–	–	–	–	–	8 (≈ 26.1 µM)	–	MFC (Candida albicans [17]): 64 µg/mL (≈ 209 µM)
O=c1c(C(NCc2cccc(C(F)(F)F)c2)c2ccccc2)csc2ccccc12 (stereo not drawn)	32 (≈ 75.2 µM)	–	28.93	Active	64 (≈ 150 µM)	Active	64 (≈ 150 µM)	64 (≈ 150 µM)	<70	Time-dependent-effect	Active	Dose-dependent-effect	32 (≈ 75.2 µM)	32 (≈ 75.2 µM)	–	–
O=c1c(C(NCc2ccccc2)c2ccccc2)csc2ccc(Cl)cc12 (stereo not drawn)	8 (≈ 20.4 µM)	64 (≈ 163 µM)	18.24	Active	16 (≈ 40.8 µM)	Active	4 (≈ 10.2 µM)	8 (≈ 20.4 µM)	–	Time-dependent-effect	–	Dose-dependent-effect	16 (≈ 40.8 µM)	16 (≈ 40.8 µM)	64 (≈ 163 µM)	Activity (HepG2 [18]): 692000 µm²; Activity (HepG2 [19]): 683000 µm²; Activity (HepG2 [20]): 80%; Activity (HepG2 [21]): 768000 µm²; Selectivity ratio (Bacillus subtilis [22]): 16
O=c1c(C(NCc2ccc(OC(F)(F)F)cc2)c2ccccc2)csc2ccccc12 (stereo not drawn)	16 (≈ 36.2 µM)	64 (≈ 145 µM)	31.19	Active	8 (≈ 18.1 µM)	Active	16 (≈ 36.2 µM)	16 (≈ 36.2 µM)	>70	Time-dependent-effect	Active	Dose-dependent-effect	8 (≈ 18.1 µM)	16 (≈ 36.2 µM)	64 (≈ 145 µM)	MBC (Escherichia coli [3]): 32 µg/mL (≈ 72.5 µM); MBC (Staphylococcus aureus [16]): 32 µg/mL (≈ 72.5 µM); Selectivity ratio (Bacillus subtilis [22]): 16; Selectivity ratio (Escherichia coli [23]): 4
